These results are taken from patent US6100272A, “Tetracyclic spiro compounds as 5HT1B receptor antagonists” (SmithKline Beecham p.l.c., priority 1996, dated 2000).

For one experiment, the target named is T1, 5-HT 1B receptors (Homo sapiens, UniProt P28222).
T1 construct: expressed in transfected cells; host or cells: CHO cells (homogenised in Tris buffer)
T1 sequence (P28222 whole entry): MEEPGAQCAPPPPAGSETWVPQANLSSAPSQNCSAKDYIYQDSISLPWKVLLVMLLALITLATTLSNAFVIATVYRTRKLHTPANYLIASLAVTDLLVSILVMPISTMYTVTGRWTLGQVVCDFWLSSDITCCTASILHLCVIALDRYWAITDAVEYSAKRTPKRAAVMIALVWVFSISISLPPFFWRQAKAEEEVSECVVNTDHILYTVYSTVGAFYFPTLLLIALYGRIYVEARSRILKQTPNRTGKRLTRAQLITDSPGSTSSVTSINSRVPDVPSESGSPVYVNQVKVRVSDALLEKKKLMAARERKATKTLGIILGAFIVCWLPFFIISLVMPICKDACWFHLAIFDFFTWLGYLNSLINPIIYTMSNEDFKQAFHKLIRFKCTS
In words: 5-HT 1B and 5-HT 1D receptor binding ([3H]-5-HT displacement, CHO cell homogenates). The note with it: CHO cells expressing receptor; [3H]-5-HT 4 nM; Tris Mg HCl buffer pH 7.7; 37° C., 45 minutes; pKi calculated from IC50. The procedure:
CHO cells expressing 5-HT 1D receptors (0.563×10^8 cells/ml) were homogenised in Tris buffer and stored in 1 ml aliquots. CHO cells expressing 5-HT 1B receptors (4×10^7 cells/ml) were homogenised in Tris buffer and stored in 1.5 ml aliquots. 0.4 ml of a cell suspension was incubated with [^3 H-5-HT (4 nM) in Tris Mg HCl buffer (pH 7.7) and test drug, at 37° C. for 45 minutes. Each test drug was tested at 10 concentrations (0.01 mM to 0.3 nM final concentration), with non-specific binding defined using 0.01 mM 5-HT. The total assay volume was 0.5 ml. Incubation was stopped by rapid filtration using a Packard Filtermate (filters pre-soaked in 0.3% polyethylenimine) and radioactivity measured by Topcount scintillation counting. pKi values were calculated from the IC50 generated by an iterative least squares curve fitting programme.
With `Cc1cc(N2CCCC2=O)ccc1-c1ccc(C(=O)N2CCc3cc4c(cc32)C2(CO4)C[C@@H](C)N(C)[C@@H](C)C2)cc1` (stereo partly drawn) [Example 28, cis-2',6'-dimethyl isomer of 5-[2'-Methyl-4'-(2-oxopyrrolidin-1-yl)biphenyl-4-carbonyl]-2,3,6,7-tetrahydro-1',2',6'-trimethylspiro[furo[2,3-f]indole-3,4'-piperidine]], the “pKi values at 5-HT 1D beta receptors” value was above 8.0.

Still in this experiment, the particulars now being: CHO cells expressing receptor; [3H]-5-HT 4 nM; Tris Mg HCl buffer pH 7.7; 37° C., 45 minutes; pKi calculated from IC50; read-out: pKi values at 5-HT 1D beta receptors (converted).
`Cc1cc(N2CCCC2=O)ccc1-c1ccc(C(=O)C2=C3CC4=C(C=C3N=C2)OCC42CCN(C)CC2)cc1` [Example 33, 2,3-Dihydro-1'-methyl-5-[2'-methyl-4'-(2-oxopyrrolidin-1-yl)biphenyl-4-carbonyl]spiro[furo[3,2-f]indole3,4'-piperidine]]: the Ki was below 10 nM.
As to `C=CCN1CCC2(CC1)COc1cc3c(cc12)N(C(=O)c1ccc(-c2ccc(N4CCCC4=O)cc2C)cc1)CC3` [Example 24, 1'-Allyl-5-[2'-methyl-4'-(2-oxopyrrolidin-1-yl)biphenyl-4-carbonyl]-2,3,6,7-tetrahydrospiro[furo[2,3-f]indole-3,4'-piperidine]], the Ki is below 10 nM.
Same read-out and setting: under `CC(=O)Nc1ccc(-c2ccc(C(=O)N3CCc4cc5c(cc43)C3(CCN(C)CC3)CO5)cc2)c(C)c1` [Example 4, 5-(4'-Acetamido-2'-methylbiphenyl-4-carbonyl)-1'-methyl-2,3,6,7-tetrahydrospiro[furo[2,3-f]indole-3,4'-piperidine]] stands below 10 nM; under `CN1CCC2(CC1)COc1cc3c(cc12)N(C(=O)c1ccc(-c2ccc(N4CCCC4=O)cc2Cl)cc1)CC3` [Example 14], below 10 nM.
Take `Cc1cc(N2CCOC2=O)ccc1-c1ccc(C(=O)N2CCc3cc4c(cc32)C2(CCN(C)CC2)CO4)cc1` [Example 3, 5-[4'-(4,5-Dihydro-2-oxooxazol-3-yl)-2'-methylbiphenyl-4-carbonyl]-1'-methyl-2,3,6,7-tetrahydrospiro[furo[2,3-f]indole-3,4'-piperidine]]: the Ki was below 10 nM.
On the same count and under the same terms, next, `Cc1cc(N2CCC(C)C2=O)ccc1-c1ccc(C(=O)N2CCc3cc4c(cc32)C2(CCN(C)CC2)CO4)cc1` (stereo not drawn) [Example 9]: below 10 nM.
Turning to `Cc1cc(N2CCNC2=O)ccc1-c1ccc(C(=O)N2CCc3cc4c(cc32)C2(CCN(C)CC2)CO4)cc1` [Example 7], the Ki is below 10 nM.
The same measure, in the same setting: next, `Cc1cc(N2CCN(C)C2=O)ccc1-c1ccc(C(=O)N2CCc3cc4c(cc32)C2(CCN(C)CC2)CO4)cc1` [Example 8]: below 10 nM.
